Key:
[1] = tested on: MPNST cell lines from NF1 patients; assay: MPNST proliferation studies (live cell count, trypan blue exclusion); format: cell-based; details: Homo sapiens, 168 h; two MPNST cell lines from two NF1 patients; 7 days; rapamycin 0.01-100 nM
[2] = tested on: tuberin phosphorylation at T-1462 and S-939; assay: Tuberin phosphorylation at T-1462 and S-939, immunoblot in serum-starved Nf1-deficient cells; format: cell-based, mouse; details: 200 nM wortmannin or U0126
[3] = tested on: S6K1 phosphorylation at T-389 (readout of mTOR activation); assay: S6K1 (T-389) phosphorylation immunoblot in serum-starved Nf1-deficient MEFs; format: cell-based, mouse; details: serum-deprived Nf1-null MEFs; pre-treatment 30 min; 20 nM rapamycin, 200 nM wortmannin, U0126
[4] = tested on: tuberin phosphorylation at S-1798; assay: Phosphorylation of immunoprecipitated tuberin at S-1798 in serum-starved Nf1-deficient MEFs; format: cell-based, mouse
[5] = tested on: S6K1 phosphorylation in NF1-/- Schwann cells; assay: S6K1 phosphorylation immunoblot in neurofibroma-derived NF1-/- Schwann cells; format: cell-based; details: NF1-/- Schwann cells from human cutaneous and plexiform neurofibromas
Protocol: Litter-mate matched MEFs or NIH3T3 cells were plated in serum-free media at a density of 1.0×10^6 cells/10-cm plate. After 18 hours, 200 nM insulin or 6 μM LPA was added. Where indicated, cells were pre-treated with DMSO, 20 nM rapamycin (Calbiochem), 200 nM Wortmannin (Sigma-Aldrich), or indicated concentrations of U0126 (Calbiochem) for 30-min. For amino acid withdrawal studies, cells were washed and media was replaced with D-PBS for the indicated times. Following stimulation, cells were lysed in 1% SDS boiling lysis buffer. Neurofibroma-derived patient matched NF1^+/− and NF1^−/− Schwann cells were isolated and cultured as previously described (Rosenbaum, et al., J. Neurosci. Res. 61:524-532 (2000); Serra, et al., Hum. Mol. Genet. 9:3055-3064 (2000)). Schwann cells were seeded at a concentration of 2.5×10^5 cells/6-cm plate in DMEM containing 0.1% serum without forskolin, insulin or heregulin and lysed as described above. […] Clarified lysates were normalized for protein levels and analyzed by Western blotting with the following antibodies: Phospho-p70S6K(T-389), Phospho-Tuberin (S-939), Phospho-Tuberin (T-1462), Phospho-Akt(S-473), Phospho-p44/42 Erk (T-202/Y-204) (Cell Signaling Technologies), Tuberin (C-20) (Santa Cruz Biotechnology), Protein Kinase Bα/AKT1, Actin, β-Tubulin (Sigma-Aldrich) and avian p90RSK1. […]

SMILES	IC50 [1]	tuberin phosphorylation at T-1462 and S-939 [2]	aberrant activation (phosphorylation) of S6K1 [3]	tuberin phosphorylation at S-1798 (basophilic RXRXXpS/T site) [4]	S6K1 phosphorylation [5]
CO[C@H]1C[C@@H]2CC[C@@H](C)[C@@](O)(O2)C(=O)C(=O)N2CCCC[C@H]2C(=O)O[C@H]([C@H](C)C[C@@H]2CC[C@@H](O)[C@H](OC)C2)CC(=O)[C@H](C)/C=C(\C)[C@@H](O)[C@@H](OC)C(=O)[C@H](C)C[C@H](C)/C=C/C=C/C=C/1C [rapamycin]	1 to 10 nM	–	–	–	–
N#CC(=C(/N)Sc1ccccc1N)/C(C#N)=C(\N)Sc1ccccc1N [U0126]	–	no effect	suppressed S6K1 phosphorylation in these cells to a similar extent	suppressed	blocked

Source: patent US20060160837A1, “Rapamycin compounds in the treatment of neurofibromatosis type 1” (The Brigham and Women's Hospital, Inc., priority 2004, published 2006)
